According to patent US20230373989A1, “N-PHENYLAMINOCARBONYL PYRIDINO-, PYRIMIDINO AND BENZO-TROPANES AS MODULATORS OF GPR65” (PATHIOS THERAPEUTICS LIMITED, priority 2020, published 2023):

What follows are compounds tested against T1, human recombinant GPR65 (Homo sapiens, UniProt Q8IYL9) (assay: Human GPR65 cAMP HTRF antagonist assay). Details: not given.
T1 construct: host or cells: 1321N1 human astrocytoma cells (1321N1-hrGPR65)
T1 sequence (Q8IYL9 whole entry): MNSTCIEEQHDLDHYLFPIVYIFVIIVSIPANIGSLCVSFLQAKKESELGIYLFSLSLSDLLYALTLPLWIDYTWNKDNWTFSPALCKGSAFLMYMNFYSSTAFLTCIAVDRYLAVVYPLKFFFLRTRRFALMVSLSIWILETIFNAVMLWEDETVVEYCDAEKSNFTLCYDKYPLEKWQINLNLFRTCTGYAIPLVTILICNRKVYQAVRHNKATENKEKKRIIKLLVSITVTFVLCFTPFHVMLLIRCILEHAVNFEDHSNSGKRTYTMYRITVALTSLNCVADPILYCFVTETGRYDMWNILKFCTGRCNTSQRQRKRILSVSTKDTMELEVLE
Type: cell-based
Text: In one preferred embodiment, the compound prevents the increase in cytoplasmic cAMP levels expected following GPR65 activation at acidic pH. This prevention of cAMP accumulation in turn prevents downstream signalling through ICER, as described above. The “Human GPR65 cyclic adenosine monophosphate (cAMP) Homogeneous Time Resolved Fluorescence (HTRF) antagonist assay”, or simply “cAMP assay”, as described in the accompanying examples, can be used to measure the potency of GPR65 modulators, which is expressed as the concentration of compound required to reduce the increase in cAMP concentration upon GPR65 activation by 50% (i.e. an IC50).
Human GPR65 Cyclic Adenosine Monophosphate (cAMP) Homogeneous Time Resolved Fluorescence (HTRF) Antagonist Assay Procedure
IC50 data was obtained by the following procedure:
1321N1 human astrocytoma cells stably expressing human recombinant GPR65 (1321N1-hrGPR65 cells, EuroscreenFast) were cultured according to the vendor's instructions.
Compounds were tested for their ability to antagonise GPR65, through measuring the concentration of cytoplasmic cAMP following treatment of the cells at a pH of 7.2 to activate GPR65 signalling and addition of the compound to be tested. The extent to which the expected rise in cAMP concentration upon GPR65 activation was suppressed by the added compound is indicative of its potency. The assay was carried out according to EuroscreenFast assay methodology as follows.
On the day of the assay, test compounds were added to 384-well, low volume, white microtiter plates by acoustic dispensing. KRH buffer (5 mM KCl, 1.25 mM MgSO4, 124 mM NaCl, 25 mM HEPES, 13.3 mM Glucose, 1.25 mM KH2PO4 and 1.45 mM CaCl2) was adjusted to pH 6.5, pH 7.6 and pH 8.4 by adding NaOH. 1321N1-hGPR65 cells were rapidly thawed and diluted in KRH, pH 7.6 prior to centrifugation at 300×g for 5 min and resuspension in assay buffer (KRH, pH 7.6, supplemented with 1 mM 3-isobutyl-1-methylxanthine (IBMX) and 200 μM ethylenediaminetetraacetic acid (EDTA)). Cells were added to assay plates at a density of 2,000 cells per well in a volume of 5 μl. Assay plates were briefly centrifuged at 100×g and then incubated at room temperature for 30 min. Cells were stimulated by the addition of 5 μL KRH, pH 6.5, to achieve an assay pH of 7.2, while control wells received 5 μl KRH, pH 8.4 to achieve an assay pH of 7.9. Assay plates were briefly centrifuged at 100×g and then incubated at room temperature for 30 min.
Accumulation of cAMP was detected by cAMP HTRF kit (Cisbio). d2-labeled cAMP and cryptate-labeled anti-cAMP antibody in Lysis and Detection Buffer (Cisbio) were added to assay plates, and the plates were incubated at room temperature for 1 h. HTRF measurements were performed using a Pherastar FSX instrument. Acceptor and donor emission signals were measured at 665 nm and 620 nm, respectively, and HTRF ratios were calculated as signal665 nm/signal620 nm×104. Data were normalised to high and low control values and fitted with 4-parameter logistic regression to determine hGPR65 IC50 values for the test compounds, which are shown in Table 1.
For `O=C(Nc1ccc(Cl)c(Cl)c1)N1C2CCC1c1cnc(F)nc1C2` (racemic) [Compound 46, (±)-N-(3,4-Dichlorophenyl)-2-fluoro-6,7,8,9-tetrahydro-5H-5,8-epiminocyclohepta[d]pyrimidine-10-carboxamide], the IC50 was less than 500 nM. For `O=C(Nc1cc(Cl)c(C(F)(F)F)cc1F)N1[C@H]2CC[C@@H]1c1ccnc(F)c1C2` [Compound 101, (5R,8S)-N-(5-Chloro-2-fluoro-4-(trifluoromethyl)phenyl)-1-fluoro-6,7,8,9-tetrahydro-5H-5.8-epiminocyclohepta[c]pyridine-10-carboxamide], the IC50 was less than 500 nM. `O=C(Nc1ccc(Cl)cc1F)N1C2CCC1c1ccnc(F)c1C2` (racemic) [Compound 177, (±)-N-(4-Chloro-2-fluorophenyl)-1-fluoro-6,7,8,9-tetrahydro-5H-5,8-epiminocyclohepta[c]pyridine-10-carboxamide] showed an IC50 of less than 500 nM. For `O=C(Nc1ccc(Cl)c(Cl)c1)N1C2CCC1c1cc[n+]([O-])cc1C2` (racemic) [Compound 58, (±)-10-((3,4-Dichlorophenyl)carbamoyl)-6,7,8,9-tetrahydro-5H-5,8-epiminocyclohepta[c]pyridine 2-oxide], the IC50 was less than 500 nM. `O=C(Nc1cccc(-c2ccccc2)c1)N1[C@H]2CC[C@@H]1c1ccnc(F)c1C2` [Compound 184, (5R,8S)-N-([1,1′-Biphenyl]-3-yl)-1-fluoro-6,7,8,9-tetrahydro-5H-5,8-epiminocyclohepta[c]pyridine-10-carboxamide] was tested, and the IC50 was less than 500 nM. In the case of `O=C(Nc1cc(Cl)cc(C(F)(F)F)c1)N1C2CCC1c1ccnc(F)c1C2` (racemic) [Compound 164, (±)-N-(3-Chloro-5-(trifluoromethyl)phenyl)-1-fluoro-6,7,8,9-tetrahydro-5H-5,8-epiminocyclohepta[c]pyridine-10-carboxamide], the IC50 is reported as less than 500 nM. `N#Cc1ccc(NC(=O)N2C3CCC2c2ccnc(F)c2C3)cc1C(F)(F)F` (racemic) [Compound 163, (±)-N-(4-Cyano-3-(trifluoromethyl)phenyl)-1-fluoro-6,7,8,9-tetrahydro-5H-5,8-epiminocyclohepta[c]pyridine-10-carboxamide] showed an IC50 of less than 500 nM. Work on `COC(=O)c1cc(NC(=O)N2[C@H]3CC[C@@H]2c2ccnc(F)c2C3)ccc1Cl` [Compound 123, Methyl 2-chloro-5-((5R,8S)-1-fluoro-6,7,8,9-tetrahydro-5H-5,8-epiminocyclohepta[c]pyridine-10-carboxamido)benzoate] yielded an IC50 of less than 500 nM. `O=C(Nc1ccc(-c2ccccc2)cc1)N1[C@H]2CC[C@@H]1c1ccnc(F)c1C2` [Compound 192, (5R,8S)-N-([1,1′-Biphenyl]-4-yl)-1-fluoro-6,7,8,9-tetrahydro-5H-5,8-epiminocyclohepta[c]pyridine-10-carboxamide] showed an IC50 of less than 500 nM. For `O=C(Nc1cc(Cl)c(Cl)cc1F)N1C2CCC1c1c[nH]c(=O)c(F)c1C2` (racemic) [Compound 139, (±)-N-(4,5-Dichloro-2-fluorophenyl)-4-fluoro-3-oxo-3,5,6,7,8,9-hexahydro-2H-6,9-epiminocycloheptan[c]pyridine-10-carboxamide], the IC50 was less than 500 nM. `O=C(Nc1cc(Cl)c(Cl)cc1F)N1[C@H]2CC[C@@H]1c1ccnc(F)c1C2` [Compound 79, (5R,8S)-N-(4,5-Dichlroo-2-fluorophenyl)-1-fluoro-6,7,8,9-tetrahydro-5H-5,8-epiminocyclohepta[c]pyridine-10-carboxamide] was tested, and the IC50 was less than 500 nM. In the case of `O=C(Nc1cc(Cl)c(C(F)(F)F)cc1F)N1[C@H]2CC[C@@H]1c1c[nH]c(=O)cc1C2` [Compound 93, (6S,9R)-N-(5-Chloro-2-fluoro-4-(trifluoromethyl)phenyl)-3-oxo-3,5,6,7,8,9-hexahydro-2H-6,9-epiminocyclohepta[c]pyridine-10-carboxamide], the IC50 is reported as less than 500 nM. `N#Cc1cc(NC(=O)N2[C@H]3CC[C@@H]2c2ccnc(F)c2C3)ccc1Cl` [Compound 199, (5R,8S)-N-(4-Chloro-3-cyanophenyl)-1-fluoro-6,7,8,9-tetrahydro-5H-5,8-epiminocyclohepta[c]pyridine-10-carboxamide] gave an IC50 of less than 500 nM. `O=C(Nc1cc(Cl)c(Cl)cc1O)N1[C@H]2CC[C@@H]1c1ccnc(F)c1C2` [Compound 149, (5R,8S)—N-(4,5-Dichloro-2-hydroxyphenyl)-1-fluoro-6,7,8,9-tetrahydro-5H-5,8-epiminocyclohepta[c]pyridine-10-carboxamide] was tested, and the IC50 was less than 500 nM. `O=C(Nc1ccc(C(F)(F)F)c(Cl)c1)N1C2CCC1c1cnc(F)nc1C2` (racemic) [Compound 45, (±)-N-(3-Chloro-4-(trifluoromethyl)phenyl)-2-fluoro-6,7,8,9-tetrahydro-5H-5,8-epiminocyclohepta[d]pyrimidine-10-carboxamide] showed an IC50 of less than 500 nM.

Same assay, conditions: 1321N1-hrGPR65 cells, assay pH 7.2, cAMP HTRF; read-out: hGPR65 IC50 (activity class)
In the case of `Nc1nccc2c1CC1CCC2N1C(=O)Nc1ccc(Cl)c(Cl)c1` (racemic) [Compound 63, (±)-1-amino-N-(3,4-dichlorophenyl)-6,7,8,9-tetrahydro-5H-5,8-epiminocyclohepta[c]pyridine-10-carboxamide], the IC50 is reported as greater than 5000 nM. `O=C(Nc1ccc(Cl)c(Cl)c1)N1C2CCC1c1cnc(F)c(F)c1C2` (racemic) [Compound 135, (±)-N-(3,4-Dichlorophenyl)-3,4-difluoro-6,7,8,9-tetrahydro-5H-6,9-epiminocyclohepta[c]pyridine-10-carboxamide] gave an IC50 of 500 to 5000 nM. For `O=C(Nc1cc(Cl)c(C(F)(F)F)cc1F)N1C2CCC1c1cnncc1C2` (racemic) [Compound 194, (±)-N-(5-Chloro-2-fluoro-4-(trifluoromethyl)phenyl)-6,7,8,9-tetrahydro-5H-5,8-epiminocyclohepta[d]pyridazine-10-carboxamide], the IC50 was 500 to 5000 nM. `O=C(Nc1ccc(Cl)c(Cl)c1)N1[C@@H]2CC[C@H]1c1c[nH]c(=O)nc1C2` [Compound 105, (5S,8R)-N-(3,4-Dichlorophenyl)-2-oxo-3,5,6,7,8,9-hexahydro-2H-5,8-epiminocyclohepta[d]pyrimidine-10-carboxamide] showed an IC50 greater than 5000 nM. `O=C(Nc1ccc(Cl)cc1)N1C2CCC1c1cncnc1C2` (racemic) [Compound 49, (±)-N-(4-Chlorophenyl)-6,7,8,9-tetrahydro-5H-5,8-epiminocyclohepta[d]pyrimidine-10-carboxamide] showed an IC50 greater than 5000 nM. `O=C(Nc1ccc(Cl)c(Cl)c1)N1[C@@H]2CC[C@H]1c1cncnc1C2` [Compound 53, (5S,8R)-N-(3,4-Dichlorophenyl)-6,7,8,9-tetrahydro-5H-5,8-epiminocyclohepta[d]pyrimidine-10-carboxamide] showed an IC50 greater than 5000 nM. Work on `O=C(Nc1cc(Cl)c(Cl)cc1F)N1C2CCC1c1cnc(F)c(F)c1C2` (racemic) [Compound 137, (±)-N-(4,5-Dichloro-2-fluorophenyl)-3,4-difluoro-6,7,8,9-tetrahydro-5H-6,9-epiminocyclohepta[c]pyridine-10-carboxamide] yielded an IC50 of 500 to 5000 nM. For `O=C(Nc1ccc(C(F)(F)F)c(Cl)c1)N1C2CCC1c1cnccc1C2` (racemic) [Compound 37, (±)-N-(3-Chloro-4-(trifluoromethyl)phenyl)-6,7,8,9-tetrahydro-5H-6,9-epiminocyclohepta[c]pyridine-10-carboxamide], the IC50 was 500 to 5000 nM. `O=C(Nc1ccc(Cl)c(Cl)c1)N1[C@H]2CC[C@@H]1c1cnccc1C2` [Compound 111, (6S,9R)-N-(3,4-Dichlorophenyl)-6,7,8,9-tetrahydro-5H-6,9-epiminocycloheptan[c]pyridine-10-carboxamide] gave an IC50 of 500 to 5000 nM. In the case of `O=C(Nc1ccc(Cl)c(Cl)c1)N1C2CCC1c1cnc(-c3ccccc3)nc1C2` (racemic) [Compound 26, (±)-N-(3,4-Dichlorophenyl)-2-phenyl-6,7,8,9-tetrahydro-5H-5,8-epiminocyclohepta[d]pyrimidine-10-carboxamide], the IC50 is reported as 500 to 5000 nM. Compound `N#Cc1ccc2c(c1)CC1CCC2N1C(=O)Nc1ccc(Cl)c(Cl)c1` (racemic) [Compound 72, (±)-2-Cyano-N-(3,4-dichlorophenyl)-6,7,8,9-tetrahydro-5H-5,8-epiminobenzo[7]annulene-10-carboxamide] has an IC50 of 500 to 5000 nM.
